Consider two molecules from ChEMBL document CHEMBL1687723, “Effects of zidovudine and stavudine on mitochondrial DNA of differentiating 3T3-F442a cells are not associated with imbalanced deoxynucleotide pools” (Antimicrob Agents Chemother, 2009).

Series [1] in a line: Cytotoxicity against differentiated mouse 3T3-F442A cells assessed as depletion of mitochondrial DNA level at 10 uM by real-time PCR. The class given is cell-based.
Series [2] is described as follows: Cytotoxicity against differentiated mouse 3T3-F442A cells assessed as depletion of mitochondrial DNA level at 1 uM by real-time PCR. Type of series: cell-based. Background: Real-time PCR tracks product formation cycle by cycle.
The nature of series [3]: Cytotoxicity against differentiated mouse 3T3-F442A cells assessed as effect on total deoxynucleotides content at 1 uM after 2 to 10 days. The class given is cell-based.
A short description of series [4]: Cytotoxicity against differentiated mouse 3T3-F442A cells assessed as effect on total deoxynucleotides content at 10 uM after 2 to 10 days. Type of series: cell-based.
A short description of series [5]: Cytotoxicity against differentiated mouse 3T3-F442A cells assessed as increase in total deoxynucleotides content at 10 uM after 2 to 10 days. Type of series: cell-based.
Series [6] is described as follows: Increase in mitochondrial DNA level in differentiated mouse 3T3-F442A cells at 10 uM by real-time PCR. The class given is ADME.
The nature of series [7]: Increase in mitochondrial DNA level in differentiated mouse 3T3-F442A cells at 1 uM by real-time PCR. The class given is ADME.
Series [8] can be described thus: Cytotoxicity against differentiated mouse 3T3-F442A cells assessed as increase in TTP content after 10 days. Type of series: cell-based. Particulars: 240 h.

In the case of `Cc1cn([C@H]2C=C[C@@H](CO)O2)c(=O)[nH]c1=O` [STAVUDINE], the Activity result in series [1] is on record as “Toxic”; in series [2] it was “Non-toxic”; in series [3], “Non-toxic”; in series [4], “Non-toxic”; in series [5], “Toxic”.

As for `Cc1cn([C@H]2C[C@H](N=[N+]=[N-])[C@@H](CO)O2)c(=O)[nH]c1=O` [ZIDOVUDINE], the Activity result in series [6] is reported as “Non-toxic”; in series [7], “Non-toxic”; in series [3], “Non-toxic”; in series [4], “Non-toxic”; in series [8] it was 35%.
